Laboratory results: the supplement of paper PMC10307832

Key:
Assay in all cases: relative viability (nuclei count vs DMSO), 5 days (fraction); higher = more cells survive
[1] = compound: COc1cc2nc(N3CCCN(C)CC3)nc(NC3CCN(Cc4ccccc4)CC3)c2cc1OC + Cc1nc(NC(=O)N2CCC[C@H]2C(N)=O)sc1-c1ccnc(C(C)(C)C(F)(F)F)c1 [Alpelisib] (partner 2 µM)
Summary of the method: (§1)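 Nuclei were stained with Hoechst during a one-step fixation (final 0.05% Triton X-100, 1% formaldehyde, 1 ug/ml Hoechst) carried out 5 days after dosing, then counted on 4× images. The cells, lung cancer lines in 1536-well plates, had been dosed by pin tool the day after seeding with one drug alone or a fixed anchor-drug dose plus five library-drug doses (not always all listed) in √10 steps. Relative viability is the nuclei count in treated wells divided by that in vehicle wells, and each value is the median of duplicate plates.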

[2] = compound: COc1cc2nc(N3CCCN(C)CC3)nc(NC3CCN(Cc4ccccc4)CC3)c2cc1OC + Cc1nc(Nc2ncc(C(=O)Nc3c(C)cccc3Cl)s2)cc(N2CCN(CCO)CC2)n1 [Dasatinib] (partner 0.075 µM)
Summary of the method: as §1

AZD6482 + Foretinib = compound: Cc1cc([C@@H](C)Nc2ccccc2C(=O)O)c2nc(N3CCOCC3)cc(=O)n2c1 [AZD6482] + COc1cc2c(Oc3ccc(NC(=O)C4(C(=O)Nc5ccc(F)cc5)CC4)cc3F)ccnc2cc1OCCCN1CCOCC1 [Foretinib] (partner 0.25 µM)
Summary of the method: as §1

AZD6482 + Phenformin = compound: Cc1cc([C@@H](C)Nc2ccccc2C(=O)O)c2nc(N3CCOCC3)cc(=O)n2c1 [AZD6482] + N=C(N)NC(=N)NCCc1ccccc1 [Phenformin] (partner 250 µM)
Summary of the method: as §1

Cell Line | relative viability ([1]; first compound 0.2 µM) | relative viability ([1]; first compound 0.6325 µM) | relative viability ([1]; first compound 2 µM) | relative viability ([1]; first compound 6.325 µM) | relative viability ([2]; first compound 0.2 µM) | relative viability ([2]; first compound 0.6325 µM) | relative viability ([2]; first compound 2 µM) | relative viability ([2]; first compound 6.325 µM) | relative viability (AZD6482 + Foretinib; first compound 0.08 µM) | relative viability (AZD6482 + Foretinib; first compound 0.253 µM) | relative viability (AZD6482 + Foretinib; first compound 0.8 µM) | relative viability (AZD6482 + Foretinib; first compound 2.53 µM) | relative viability (AZD6482 + Foretinib; first compound 8 µM) | relative viability (AZD6482 + Phenformin; first compound 0.08 µM) | relative viability (AZD6482 + Phenformin; first compound 0.253 µM) | relative viability (AZD6482 + Phenformin; first compound 0.8 µM) | relative viability (AZD6482 + Phenformin; first compound 2.53 µM) | relative viability (AZD6482 + Phenformin; first compound 8 µM)
NCI-H1563 | 0.954 | 0.904 | 0.834 | 0.73 | 0.469 | 0.467 | 0.441 | 0.421 | 0.89 | 0.875 | 0.908 | 0.765 | 0.652 | 0.684 | 0.653 | 0.67 | 0.65 | 0.629
NCI-H1651 | 0.921 | 0.915 | 1.16 | 1.1 | 0.383 | 0.523 | 0.47 | 0.413 | 0.624 | 0.699 | 0.736 | 0.566 | 0.636 | 0.281 | 0.296 | 0.33 | 0.253 | 0.242
NCI-H1666 | 0.924 | 0.993 | 0.951 | 0.461 | 0.819 | 0.847 | 0.788 | 0.718 | 0.914 | 0.868 | 1.03 | 0.785 | 0.989 | 0.532 | 0.548 | 0.582 | 0.525 | 0.577
NCI-H1734 | 0.657 | 0.613 | 0.798 | 0.736 | 0.524 | 0.37 | 0.46 | 0.416 | 0.829 | 0.788 | 0.875 | 0.604 | 0.671 | 0.386 | 0.333 | 0.465 | 0.229 | 0.226
NCI-H1755 | 0.979 | 0.844 | 0.916 | 0.871 | 0.436 | 0.395 | 0.416 | 0.423 | 0.807 | 0.834 | 0.851 | 0.669 | 0.603 | 0.525 | 0.576 | 0.542 | 0.427 | 0.41
NCI-H1793 | 0.677 | 0.722 | 0.812 | 0.785 | 0.378 | 0.412 | 0.375 | 0.375 | 0.575 | 0.431 | 0.507 | 0.3 | 0.322 | 0.338 | 0.311 | 0.24 | 0.191 | 0.15
NCI-H1915 | 1.06 | 0.998 | 1.1 | 1.1 | 0.35 | 0.355 | 0.338 | 0.349 | 1.05 | 1.02 | 1.1 | 1 | 1.09 | 0.379 | 0.334 | 0.384 | 0.326 | 0.357
NCI-H1944 | 0.822 | 0.909 | – | 0.912 | 0.199 | 0.245 | 0.204 | 0.232 | 0.866 | 0.892 | 0.872 | 0.686 | 0.697 | 0.216 | 0.193 | 0.19 | 0.154 | 0.153
NCI-H1975 | 0.718 | 0.597 | 0.727 | 0.616 | 0.342 | 0.438 | 0.464 | 0.287 | 0.889 | 0.872 | 0.951 | 0.709 | 0.558 | 0.373 | 0.383 | 0.401 | 0.283 | 0.232
NCI-H1993 | 0.668 | 0.637 | 0.692 | 0.662 | 0.568 | 0.657 | 0.657 | 0.574 | 0.674 | 0.745 | 0.846 | 0.558 | 0.562 | 0.49 | 0.488 | 0.471 | 0.524 | 0.449
NCI-H2009 | 1.24 | 1.07 | 1.18 | 1.07 | 0.308 | 0.324 | 0.493 | 0.296 | 1.12 | 1.24 | 1.24 | 0.83 | 0.747 | 0.476 | 0.49 | 0.442 | 0.283 | 0.34
NCI-H2023 | 0.661 | 0.634 | 0.714 | 0.331 | 0.57 | 0.558 | 0.56 | 0.237 | 0.83 | 0.757 | 1.02 | 0.477 | 0.518 | 0.384 | 0.368 | 0.379 | 0.261 | 0.29
NCI-H2085 | 1.06 | 0.972 | 1 | 0.799 | 0.217 | 0.306 | 0.262 | 0.206 | 0.62 | 0.637 | 0.338 | 0.308 | 0.29 | 0.483 | 0.448 | 0.406 | 0.318 | 0.29
NCI-H2087 | 1.15 | 1.2 | 1.27 | 1.05 | 0.7 | 0.75 | 0.941 | 0.617 | 1.07 | 0.972 | 1.12 | – | 1.08 | 0.44 | 0.442 | 0.474 | – | 0.385
NCI-H2126 | 0.83 | 0.734 | 0.761 | 0.717 | 0.583 | 0.678 | 0.597 | 0.502 | 1.08 | 0.954 | 1.12 | 0.757 | 0.724 | 0.507 | 0.521 | 0.451 | 0.355 | 0.349
NCI-H2170 | 0.838 | 0.805 | 0.851 | 0.835 | 0.658 | 0.594 | 0.638 | 0.583 | 0.977 | 1 | 0.955 | 0.922 | 0.785 | 0.418 | 0.432 | 0.421 | 0.386 | 0.36
NCI-H2228 | 0.587 | 0.685 | 0.661 | 0.409 | 0.514 | 0.488 | 0.496 | 0.243 | – | 0.791 | 0.862 | 0.694 | 0.649 | – | 0.315 | 0.324 | 0.309 | 0.284
NCI-H2347 | 0.929 | 1.02 | 1.03 | 0.831 | 0.36 | 0.339 | 0.304 | 0.274 | 0.646 | 0.569 | 0.946 | 0.557 | 0.74 | 0.198 | 0.277 | 0.235 | 0.243 | 0.221
